± gives the standard deviation of the reports.

`*/C(=C/c1cc(OC)c(/C=C(\c2ccccc2)c2ccc3cc(*)ccc3c2)cc1OC)c1ccccc1` (repeat unit) registered a glass transition temperature of 198.00 °C.

`*/C=C/C(*)(C)C` (repeat unit): the glass transition temperature was -9.00 °C.

In turn, `*/C=C/C(*)(C)c1ccccc1` (repeat unit) had a glass transition temperature of 52.00 °C.

`*/C=C/C(C(=O)OCc1ccccc1)C(*)C(=O)OCc1ccccc1` (repeat unit) came in with a glass transition temperature of 21.00 °C.

With `*/C=C/C(C)(C(=O)OC)C(*)C` (repeat unit), the glass transition temperature was found to be 34.00 °C.

On to `*/C=C/C(C)C(*)C(=O)OC12CC3CC(CC(C3)C1)C2` (repeat unit), for which the glass transition temperature came to 115.00 °C.

In turn, `*/C=C/C(C)C(*)C(=O)OCCCN(C)c1ccc(N(C)C)cc1` (repeat unit) yielded a glass transition temperature of 11.50 °C.

For the compound `*/C=C/C(C)C(*)C(=O)OCCN(C)c1ccc(N(C)C)cc1` (repeat unit), the glass transition temperature was 20.50 °C.

The compound `*/C=C/C(C*)COCC(=O)OCCCCCCCCOc1ccc(/C=C/c2ccc([N+](=O)[O-])cc2)cc1` (repeat unit) yielded a glass transition temperature of 23.00 °C.

In turn, `*/C=C/C(COCc1ccccc1)C(*)COCc1ccccc1` (repeat unit) gave a glass transition temperature of -4.00 °C.

Compound `*/C=C/C1=C(*)CC(C(=O)OCC)(C(=O)OCC)C1` (repeat unit) gave a glass transition temperature of 27.7 °C.

Compound `*/C=C/C1CC(*)C(C#N)([Si](C)(C)C)C1` (repeat unit) gave a glass transition temperature of 211.00 °C.

In the case of `*/C=C/C1CC(*)C(C(=O)OC(C)(C)C)C1C(=O)OC(C)(C)C` (repeat unit), the glass transition temperature stood at 83.40 °C.

Consider `*/C=C/C1CC(*)C(C(=O)Oc2ccccc2)C1C(=O)Oc1ccccc1` (repeat unit), for which the glass transition temperature is 96.50 °C.

The compound `*/C=C/C1CC(*)C(F)(F)C1(F)OC(F)(F)C(F)(F)C(F)(F)F` (repeat unit) displayed a glass transition temperature of 77.00 °C.

Compound `*/C=C/C1CC(*)C2C(=O)N(c3ccc(C)cc3)C(=O)C12` (repeat unit) came in with a glass transition temperature of 222.00 °C.

In turn, `*/C=C/C1CC(*)C2C(=O)N(c3cccc(C)c3)C(=O)C12` (repeat unit) gave a glass transition temperature of 206.00 °C.

In the case of `*/C=[CH]/[Ge]([*])([c]1ccccc1)[c]1ccccc1` (repeat unit), the glass transition temperature is -36.00 °C.

As to `*/C=[CH]/[Ge](/[CH]=C/[Si](*)(c1ccccc1)c1ccccc1)([c]1ccccc1)[c]1ccccc1` (repeat unit), the glass transition temperature is 28.00 °C.

In turn, `*/C=C/[Si](*)(c1ccccc1)c1ccccc1` (repeat unit) displayed a glass transition temperature of -9.00 °C.

`*/C=C/c1cc(OC)c(/C=C/c2ccc(/C=C(\Oc3ccccc3)c3ccc(/C(=C/c4ccc(*)cc4)c4ccc(Oc5ccccc5)cc4)cc3)cc2)cc1OC` (repeat unit) displayed a glass transition temperature of 175.00 °C.

`*/C=C/c1cc(OCC(CC)CCCC)c(*)cc1OC` (repeat unit) showed a glass transition temperature of 79.00 °C.

The compound `*/C=C/c1cc(OCC2CC3CC2C2CCCC32)c(*)cc1OC` (repeat unit) came in with a glass transition temperature of 174.00 °C.

The compound `*/C=C/c1cc(OCCC(C)CCCC(C)C)c(*)cc1OC` (repeat unit) yielded a glass transition temperature of 54.50 °C.

In turn, `*/C=C/c1cc(OCCCCCCCC)c(*)cc1OC` (repeat unit) registered a glass transition temperature of 58.00 °C.

Compound `*/C=C/c1ccc(/C=C/[Si](C)(CCC(F)(F)F)c2ccc([Si](*)(C)CCC(F)(F)F)cc2)cc1` (repeat unit) came in with a glass transition temperature of 55.70 °C.

In turn, `*C/C=C/COC(=O)C(Cc1ccccc1)NC(=O)/C=C/C(=O)NC(Cc1ccccc1)C(=O)O*` (repeat unit) displayed a glass transition temperature of 109.00 °C.

`*CC(=O)c1ccc(Oc2ccc(C(=O)COc3ccc(/C=C4\CCC/C(=C\c5ccc(O*)c(OC)c5)C4=O)cc3OC)cc2)cc1` (repeat unit): the glass transition temperature amounted to 211.8 °C.

In turn, `*CC(O)COC(=O)CCCCC(=O)OCC(O)COc1ccc(/C=C(\C)c2ccc(O*)cc2)cc1` (repeat unit) returned a glass transition temperature of 33.00 °C.

As to `*CCCCCCCCCCOc1c(OC)cc(/C=C/c2ccc(/C=C/c3cc(OC)c(O*)c(OC)c3)cc2)cc1OC` (repeat unit), the glass transition temperature worked out at 68.50 °C.

`*CCCCCCCCCCOc1ccc(/C=C2\CCC/C(=C\c3ccc(O*)c(OC)c3)C2=O)cc1OC` (repeat unit) returned a glass transition temperature of 60.00 °C.

In turn, `*CCCCCCCCCCOc1ccc(/C=C2\CCC/C(=C\c3ccc(O*)cc3)C2=O)cc1` (repeat unit) gave a glass transition temperature of 85.00 °C.

`*CCCCCCCCOc1c(OC)cc(/C=C/c2cc(CCCCCC)c(/C=C/c3cc(OC)c(O*)c(OC)c3)cc2CCCCCC)cc1OC` (repeat unit) displayed a glass transition temperature of 21.00 °C.

The compound `*CCCCCCCCOc1c(OC)cc(/C=C2\CCC/C(=C\c3cc(OC)c(O*)c(OC)c3)C2=O)cc1OC` (repeat unit) showed a glass transition temperature of 62.00 °C.

In turn, `*CCCCCCCCOc1ccc(/C=C2\CC/C(=C\c3ccc(OCCCCCCCCOP(=O)(O*)OC)c(OC)c3)C2=O)cc1OC` (repeat unit) gave a glass transition temperature of 73.00 °C.

On to `*CCCCCCOC(=O)C(Cc1ccccc1)NC(=O)/C=C/C(=O)NC(Cc1ccccc1)C(=O)O*` (repeat unit), for which the glass transition temperature is 92.00 °C.

In turn, `*CCCCCCOc1ccc(/C=C2\CC/C(=C\c3ccc(OCCCCCCOP(=O)(O*)OC)c(OC)c3)C2=O)cc1OC` (repeat unit) showed a glass transition temperature of 74.00 °C.

`*CCCCCCOc1ccc(/C=C2\CCC/C(=C\c3ccc(O*)cc3)C2=O)cc1` (repeat unit) registered a glass transition temperature of 116.00 °C.

`*CCCCOCCCCOCCCCOC(=O)c1ccc(/N=C/c2cc(OCCCCCC)c(/C=C/c3cc(OCCCCCC)c(/C=C/c4cc(OCCCCCC)c(/C=N/c5ccc(C(=O)O*)cc5)cc4OCCCCCC)cc3OCCCCCC)cc2OCCCCCC)cc1` (repeat unit) came in with a glass transition temperature of 14.30 °C.

With `*CCCCOc1ccc(/C=C2\CC/C(=C\c3ccc(OCCCCOP(=O)(O*)OC)c(OC)c3)C2=O)cc1OC` (repeat unit), the glass transition temperature was found to be 75.00 °C.

For `*CCOC(=O)/C=C/C(=O)NCCCCCCNC(=O)/C=C/C(=O)O*` (repeat unit), the glass transition temperature amounted to 89.00 °C.

Turning to `*CCOC(=O)/C=C/C(=O)O*` (repeat unit), the glass transition temperature was -10.00 °C.

As to `*CCOCCOC(=O)/C=C/C(=O)NCCCCCCNC(=O)/C=C/C(=O)O*` (repeat unit), the glass transition temperature was 76.00 °C.

`*CCOCCOCCOCCOCCOc1ccc(/C=C(\C)c2ccc(O*)cc2)cc1` (repeat unit) displayed a glass transition temperature of 17.00 °C.

The compound `*CCOCCOCCOc1ccc(/C=C(\C)c2ccc(O*)cc2)cc1` (repeat unit) gave a glass transition temperature of 16.00 °C.

In turn, `*Oc1ccc(/C=C2\CCC/C(=C\c3ccc(OC(=O)c4cccc(C(*)=O)c4)c(OC)c3)C2=O)cc1OC` (repeat unit) came in with a glass transition temperature of 57.86 °C.

In turn, `*CC(*)C=C` (repeat unit) [Poly(1,2-butadiene)] displayed a glass transition temperature of -6.08 ± 1.3 °C.

Take `*CC(*)(C)C(=O)OCC(F)(F)F` (repeat unit) [Poly(2,2,2-trifluoroethyl methacrylate)]: the glass transition temperature turned out to be 74.42 ± 0.8 °C.

`*CC(*)(C)C(=O)OCC(F)(F)C(F)F` (repeat unit) [Poly(2,2,3,3-tetrafluoropropyl methacrylate)] registered a glass transition temperature of 75.42 ± 6.5 °C.

`*CC(*)c1cc(C)ccc1C` (repeat unit) [Poly(2,5-dimethyl styrene) ] showed a glass transition temperature of 143 ± 0.6 °C.

The compound `*CC(*)(C)C(=O)OCCCl` (repeat unit) [Poly(2-chloroethyl methacrylate) ] had a glass transition temperature of 90 ± 16 °C.

Take `*CC(*)C(=O)OCC(CC)CCCC` (repeat unit) [Poly(2-ethylhexyl acrylate)]: the glass transition temperature is -57.08 ± 7 °C.

In turn, `*CC(*)C(F)(F)F` (repeat unit) [Poly(3,3,3-trifluoropropylene) ] displayed a glass transition temperature of 27 ± 2.3 °C.

As for `*CC(*)c1ccc(Cl)c(F)c1` (repeat unit) [Poly(3-fluoro-4-chloro styrene) ], the glass transition temperature is 122 ± 0.6 °C.

On to `*Oc1ccc(Sc2ccc(OC(*)=O)cc2)cc1` (repeat unit) [Poly(4,4'-thiodiphenylene carbonate)], for which the glass transition temperature is 113.4 ± 2.1 °C.

`*CC(*)c1ccc(Br)cc1` (repeat unit) [Poly(4-bromostyrene)] displayed a glass transition temperature of 140.4 ± 5.4 °C.

Take `*CC(*)c1ccc(Cl)cc1` (repeat unit) [Poly(4-chlorostyrene)]: the glass transition temperature was 119.92 ± 5.3 °C.

On to `*CCCCCC(=O)N*` (repeat unit) [Poly(6-aminohexanoic acid)], for which the glass transition temperature is 55.73 ± 5.6 °C.

In the case of `*CC(*)C(=O)NC(C)C` (repeat unit) [Poly(N-isopropyl acrylamide)], the glass transition temperature was 85.2 ± 56 °C.

In turn, `*CC(*)N1CCCC1=O` (repeat unit) [Poly(N-vinyl pyrrolidone)] had a glass transition temperature of 145 ± 7.9 °C.

Compound `*CC(*)C#N` (repeat unit) [Poly(acrylonitrile)] had a glass transition temperature of 110 ± 12 °C.

Regarding `*Oc1ccc(C(C)(C)c2ccc(OC(*)=O)cc2)cc1` (repeat unit) [Poly(bisphenol A carbonate)], the glass transition temperature came to 152.42 ± 6.3 °C.

With `*CCCCCCCCCCOC(=O)CCCCC(=O)O*` (repeat unit) [Poly(decamethylene adipate) ], the glass transition temperature was -57 ± 6.6 °C.

Regarding `*O[Si](*)(C)C` (repeat unit) [Poly(dimethylsiloxane)], the glass transition temperature is -124 ± 2 °C.

`*CC(*)C(=O)OCC` (repeat unit) [Poly(ethyl acrylate) ] returned a glass transition temperature of -22 ± 2.1 °C.

As for `*CCOC(=O)CCCCC(=O)O*` (repeat unit) [Poly(ethylene adipate)], the glass transition temperature is -48.83 ± 8 °C.

Compound `*CCOC(=O)c1ccccc1C(=O)O*` (repeat unit) [Poly(ethylene phthalate)] showed a glass transition temperature of 60.17 ± 51 °C.

The record behind these values is the PolyMetriX glass transition set.
